Results as given in article PMC8952364, “Polyphenols as Inhibitors of Antibiotic Resistant Bacteria—Mechanisms Underlying Rutin Interference with Bacterial Virulence” (Pharmaceuticals, 2022).
In brackets after ≈: the same amount, converted by molar mass. Read-outs that look alike come from different tables or passages of the source.

Legend:
[1] = test system: E. coli (0157:H7 ATCC 51659); parameters: method as in PMID 34073447; settings: cited from earlier work
S. aureus (ATCC 25923) = test system: S. aureus (ATCC 25923); parameters: method as in PMID 34073447; settings: cited from earlier work
[2] = test system: eleven antibiotic resistant strains of bacteria; assay: Antimicrobial assay, summary over the examined strains; type: cell-based
Description: (§1) The bacterial suspension (0.5 Mc Farland) was prepared, and twenty-fold dilutions of these suspensions were mixed in a 1:10 ratio with the corresponding polyphenol dilution (0.0039–1 mg/mL). Microtiter plates were incubated at 37 °C for 24 h. The lowest concentrations without visible growth (under a binocular microscope) were defined as MICs. The bactericidal concentrations (MBCs) were determined by serial subcultivation of 2 μL of the well’s content and further incubation for 24 h at 37 °C. Streptomycin (SigmaAldrich, Darmstadt, Germany) was used as a positive control. The polyphenols were obtained from Extrasynthese, Rhone, France (rutin, isoquercitrin) and SigmaAldrich, Germany (hesperetin, hesperidin, naringenin, naringin, taxifolin, morin, chlorogenic acid, ferulic acid, p-coumaric acid, and gallic acid). The stock compounds were prepared in ethanol (30%), and adequate ethanol concentrations were used as the negative control in the assays. Experiments were done in triplicate.

P. aeruginosa IBRS P001 = assay: Antimicrobial microdilution assay (MIC/MBC); type: cell-based, Pseudomonas aeruginosa; settings: for MIC: 37 °C, 24 h; for MBC: subcultivation, 24 h at 37 °C
Description: as §1

P. aeruginosa MMA83 = assay: Antimicrobial microdilution assay (MIC/MBC); type: cell-based, Pseudomonas aeruginosa; settings: for MIC: 37 °C, 24 h; for MBC: subcultivation, 24 h at 37 °C
Description: as §1

A. xylosoxidans 37F = assay: Antimicrobial microdilution assay (MIC/MBC); type: cell-based, Achromobacter xylosoxidans; settings: for MIC: 37 °C, 24 h; for MBC: subcultivation, 24 h at 37 °C
Description: as §1

[3] = test system: Methicillin resistant S. aureus IBRS MRSA 011; assay: Antimicrobial microdilution assay (MIC/MBC); type: cell-based, Staphylococcus aureus; settings: for MIC: 37 °C, 24 h; for MBC: subcultivation, 24 h at 37 °C
Description: as §1

S. infantis 1371/1 = assay: Antimicrobial microdilution assay (MIC/MBC); type: cell-based, Salmonella Infantis; settings: for MIC: 37 °C, 24 h; for MBC: subcultivation, 24 h at 37 °C
Description: as §1

K. pneumoniae Ni9 = assay: Antimicrobial microdilution assay (MIC/MBC); type: cell-based, Klebsiella pneumoniae; settings: for MIC: 37 °C, 24 h; for MBC: subcultivation, 24 h at 37 °C
Description: as §1

K. pneumoniae IT977 = assay: Antimicrobial microdilution assay (MIC/MBC); type: cell-based, Klebsiella pneumoniae; settings: for MIC: 37 °C, 24 h; for MBC: subcultivation, 24 h at 37 °C
Description: as §1

E. coli IBRS E003 = assay: Antimicrobial microdilution assay (MIC/MBC); type: cell-based, Escherichia coli; settings: for MIC: 37 °C, 24 h; for MBC: subcultivation, 24 h at 37 °C
Description: as §1

E. coli IMD989 = assay: Antimicrobial microdilution assay (MIC/MBC); type: cell-based, Escherichia coli; settings: for MIC: 37 °C, 24 h; for MBC: subcultivation, 24 h at 37 °C
Description: as §1

A. baumannii 6077/12 = assay: Antimicrobial microdilution assay (MIC/MBC); type: cell-based, Acinetobacter baumannii; settings: for MIC: 37 °C, 24 h; for MBC: subcultivation, 24 h at 37 °C
Description: as §1

A. baumannii S2/2 = assay: Antimicrobial microdilution assay (MIC/MBC); type: cell-based, Acinetobacter baumannii; settings: for MIC: 37 °C, 24 h; for MBC: subcultivation, 24 h at 37 °C
Description: as §1

[4] = test system: P. aeruginosa (NRRLB-272); parameters: method as in PMID 34073447; settings: cited from earlier work
[5] = test system: P. aeruginosa IBRS P001 biofilm; assay: Crystal violet antibiofilm assay (biofilm formation); type: cell-based, Pseudomonas aeruginosa; settings: MIC and sub-MIC, 24 h, crystal violet, Figure 1
Description: After incubation, each well was washed twice with sterile PBS (phosphate-buffered saline, pH 7.4) and fixed with methanol for 10 min. After removal of methanol the plate was air-dried. The biofilm was stained with 0.1% crystal violet (Bio-Merieux, Marcy l’Etoile, France) for 30 min. The plate was washed with water, air dried, and the stain was dissolved with 200 μL of 96% ethanol (Zorka, Sabac, Serbia). The absorbance was read at 620 nm on a Multiskan™ FC microplate photometer (Thermo Scientific™, Waltham, MA, USA). The results are presented as biofilm forming capacity (%) compared to control.

HaCaT cells = assay: Cytotoxicity in HaCaT cell line (crystal violet assay); type: cell-based, human; settings: HaCaT
Description: For determination of the polyphenols’ cytotoxic effect, a crystal violet assay was used, with modifications. The cytotoxic effect of polyphenols was analyzed on spontaneously immortalized human skin keratinocytes (HaCaT, AddexBio No. T0020001, San Diego, CA, USA) cell lines. […] Cells (1 × 10^4 cells/well) were seeded in a 96-well plate (Sarstedt, Nümbrecht, Germany) 24 h before treatment. […] Cells were incubated with the compounds for 24 h. […] After crystal violet was removed, the plates were washed in a stream of tap water and left to air-dry at room temperature for 24 h. The absorbance was measured in a microplate reader (Multiskan™ FC Microplate Photometer, Thermo Scientific™) at 590 nm. The results were expressed as IC50 value in μg/mL. The criterion used to categorize the cytotoxic activity polyphenols was as follows: […] All analyses were performed in triplicate; each replicate was also quantified three times. Data were expressed as mean standard deviation, where applicable.

[6] = test system: S. aureus Newman and S. aureus Newman Δcoa; parameters: method as in PMID 32130467; settings: cited from earlier work
S. aureus ATCC 11632 = test system: S. aureus ATCC 11632; parameters: method as in doi:10.5937/leksir2040057K; settings: cited from earlier work
[7] = test system: S. aureus clinical isolate; parameters: method as in doi:10.5937/leksir2040057K; settings: cited from earlier work

For `COc1ccc([C@@H]2CC(=O)c3c(O)cc(O[C@@H]4O[C@H](CO[C@@H]5O[C@@H](C)[C@H](O)[C@@H](O)[C@H]5O)[C@@H](O)[C@H](O)[C@H]4O)cc3O2)cc1O` [Hesperidin, hesperidin], the MIC [1] is listed as 1130 µg/mL (≈ 1850 µM), the MIC (S. aureus (ATCC 25923)) is listed as 1530 µg/mL (≈ 2510 µM) and the “MIC towards a range of antibiotic-resistant bacterial strains” value ([2]; summary of Table 1) is listed as ≥ 500 µg/mL. For the same compound, the MIC (P. aeruginosa IBRS P001) was 500 µg/mL (≈ 819 µM), the MBC (P. aeruginosa IBRS P001) was 1000 µg/mL (≈ 1640 µM) and the MIC (P. aeruginosa MMA83) was 1000 µg/mL (≈ 1640 µM). It also gave an MBC (P. aeruginosa MMA83) of 1000 µg/mL (≈ 1640 µM), an MIC (A. xylosoxidans 37F) of 1000 µg/mL (≈ 1640 µM) and an MBC (A. xylosoxidans 37F) of 1000 µg/mL (≈ 1640 µM). For the same compound, the MIC [3] was 500 µg/mL (≈ 819 µM), the MBC [3] was 1000 µg/mL (≈ 1640 µM) and the MIC (S. infantis 1371/1) was >1000 µg/mL. For the same compound, the MBC (S. infantis 1371/1) was >1000 µg/mL, the MIC (K. pneumoniae Ni9) was 1000 µg/mL (≈ 1640 µM) and the MBC (K. pneumoniae Ni9) was 1000 µg/mL (≈ 1640 µM). For the same compound, the MIC (K. pneumoniae IT977) was 1000 µg/mL (≈ 1640 µM), the MBC (K. pneumoniae IT977) was 1000 µg/mL (≈ 1640 µM) and the MIC (E. coli IBRS E003) was >1000 µg/mL. The MBC (E. coli IBRS E003) was >1000 µg/mL, the MIC (E. coli IMD989) was >1000 µg/mL and the MBC (E. coli IMD989) was >1000 µg/mL. For the same compound, the MIC (A. baumannii 6077/12) was 500 µg/mL (≈ 819 µM), the MBC (A. baumannii 6077/12) was 500 µg/mL (≈ 819 µM) and the MIC (A. baumannii S2/2) was 500 µg/mL (≈ 819 µM). The MBC (A. baumannii S2/2) was 500 µg/mL (≈ 819 µM), the MIC [4] was 1270 µg/mL (≈ 2080 µM) and the “reduction of biofilm formation (biomass), in words” value [5] was “significant (****, p < 0.0001) reduction”. The “cytotoxicity towards HaCaT, in words” value (HaCaT cells; 24 h) was “non-cytotoxic properties”, the “IC50 (compound concentration that inhibited 50% of the cell growth)” value (HaCaT cells; 24 h treatment, crystal violet) was >1000 µg/mL and the cytotoxicity category (HaCaT cells; maximal tested concentrations (1 mg/mL)) was “no cytotoxicity (IC50 > 501 µg/mL = no cytotoxicity)”.
For `O=c1c(O[C@@H]2O[C@H](CO)[C@@H](O)[C@H](O)[C@H]2O)c(-c2ccc(O)c(O)c2)oc2cc(O)cc(O)c12` [Isoquercitrin, isoquercitrin], the “MIC (no inhibitory activity up to)” value [6] is listed as > 1024 µg/mL, the MIC ([2]; antibiotic resistant strains of Table 1, read-out: lowest MIC among the examined strains) is listed as 250 µg/mL (≈ 538 µM) and the MIC (S. aureus ATCC 11632) is listed as 100 µg/mL (≈ 215 µM). For the same compound, the MIC [7] was 200 µg/mL (≈ 431 µM), the MIC (P. aeruginosa IBRS P001; Pseudomonas aeruginosa, IBRSP001, read-out: MIC) was 250 µg/mL (≈ 538 µM) and the MBC (P. aeruginosa IBRS P001; Pseudomonas aeruginosa, IBRSP001, read-out: MBC) was 500 µg/mL (≈ 1080 µM). For the same compound, the MIC (P. aeruginosa MMA83; Pseudomonas aeruginosa, MMA83, read-out: MIC) was 250 µg/mL (≈ 538 µM), the MBC (P. aeruginosa MMA83; Pseudomonas aeruginosa, MMA83, read-out: MBC) was 250 µg/mL (≈ 538 µM) and the MIC (A. xylosoxidans 37F; Achromobacter xylosoxidans, 37F, read-out: MIC) was 500 µg/mL (≈ 1080 µM). It also gave an MBC (A. xylosoxidans 37F; Achromobacter xylosoxidans, 37F, read-out: MBC) of 500 µg/mL (≈ 1080 µM), an MIC ([3]; Staphylococcus aureus, MRSA, read-out: MIC) of 500 µg/mL (≈ 1080 µM) and an MBC ([3]; Staphylococcus aureus, MRSA, read-out: MBC) of 1000 µg/mL (≈ 2150 µM). For the same compound, the MIC (S. infantis 1371/1; Salmonella enterica, 1371/1, read-out: MIC) was 1000 µg/mL (≈ 2150 µM), the MBC (S. infantis 1371/1; Salmonella enterica, 1371/1, read-out: MBC) was 1000 µg/mL (≈ 2150 µM) and the MIC (K. pneumoniae Ni9; Klebsiella pneumoniae, NI9, read-out: MIC) was 500 µg/mL (≈ 1080 µM). The MBC (K. pneumoniae Ni9; Klebsiella pneumoniae, NI9, read-out: MBC) was 1000 µg/mL (≈ 2150 µM), the MIC (K. pneumoniae IT977; Klebsiella pneumoniae, IT977, read-out: MIC) was 1000 µg/mL (≈ 2150 µM) and the MBC (K. pneumoniae IT977; Klebsiella pneumoniae, IT977, read-out: MBC) was 1000 µg/mL (≈ 2150 µM). The MIC (E. coli IBRS E003; Escherichia coli, IBRSE003, read-out: MIC) was > 1000 µg/mL, the MBC (E. coli IBRS E003; Escherichia coli, IBRSE003, read-out: MBC) was > 1000 µg/mL and the MIC (E. coli IMD989; Escherichia coli, IMD989, read-out: MIC) was 1000 µg/mL (≈ 2150 µM). The MBC (E. coli IMD989; Escherichia coli, IMD989, read-out: MBC) was 1000 µg/mL (≈ 2150 µM), the MIC (A. baumannii 6077/12; Acinetobacter baumannii, 6077/12, read-out: MIC) was 250 µg/mL (≈ 538 µM) and the MBC (A. baumannii 6077/12; Acinetobacter baumannii, 6077/12, read-out: MBC) was 500 µg/mL (≈ 1080 µM). For the same compound, the MIC (A. baumannii S2/2; Acinetobacter baumannii, S2/2, read-out: MIC) was 500 µg/mL (≈ 1080 µM), the MBC (A. baumannii S2/2; Acinetobacter baumannii, S2/2, read-out: MBC) was 500 µg/mL (≈ 1080 µM) and the “reduction of biofilm formation (biomass), in words” value [5] was “promising (***, p ≤ 0.001) potential to reduce the biomass”. The IC50 (HaCaT cells; Homo sapiens, 24 h, read-out: IC50 (compound concentration that inhibited 50% of the cell growth)) was > 1000 µg/mL.
